Source: patent US5977373A, “Thiadiazolyl and oxadiazolyl phenyl oxazolidinone antibacterial agents” (Pharmacia & Upjohn Company, priority 1998, dated 1999)
Converted amounts (≈) assume the structure as drawn.

What was measured:
Type in all cases: cell-based
[1] = test system: S. Aureus UC ® 9213; experiment: In vitro minimum inhibitory concentration (MIC) by agar dilution, gram-positive bacteria (Table 1); conditions: Staphylococcus aureus, UC9213
Excerpt: (§1) The oxazolidinone antibacterial agents of this invention have useful activity against a variety of microorganisms. The in vitro activity of compounds of this invention can be assessed by standard testing procedures such as the determination of minimum inhibitory concentration (MIC) by agar dilution as described in "Methods for Dilution Antimicrobial Susceptibility Tests for Bacteria That Grow Aerobically" (MFT) published January 1983 by the National Committee for Clinical Laboratory Standards, 771 East Lancaster Avenue, Villanova, Pa. 19084, USA. The activity of selected compounds of this invention against Staphylococcus aureus and Streptococcus pneumoniae are shown in Table 1.

[2] = test system: S. pneumoniae UC ® 9912; experiment: as above; conditions: Streptococcus pneumoniae, UC9912
Excerpt: as §1

[3] = test system: HI 30063; experiment: MIC for a gram negative bacterial strain (Table 2); conditions: gram negative bacterial strain HI 30063

| MIC [1] [µg/mL] | MIC [2] [µg/mL] | MIC [3] [µg/mL] | Structure (SMILES) |
| --- | --- | --- | --- |
| 2 (≈ 5.07 µM) | 0.25 (≈ 0.634 µM) | 4 (≈ 10.1 µM) | CC(=O)NC[C@H]1CN(c2ccc(-c3nnc(CCCO)s3)c(F)c2)C(=O)O1 [Example 50, (S)-N-[[3-[3-Fluoro-4-[5-(3-hydroxypropyl)-1,3,4-thiadiazol-2-yl]phenyl]-2-oxo-5-oxazolidinyl]methyl]acetamide] |
| 2 (≈ 5.26 µM) | 0.25 (≈ 0.657 µM) | 4 (≈ 10.5 µM) | CC(=O)NC[C@H]1CN(c2ccc(-c3nnc([C@H](C)O)s3)c(F)c2)C(=O)O1 [Example 51, [S-(R*,R*)]-N-[[3-[3-Fluoro-4-[5-(1-hydroxyethyl)-1,3,4-thiadiazol-2-yl]phenyl]-2-oxo-5-oxazolidinyl]methyl]acetamide] |
| 2 (≈ 5.26 µM) | 0.25 (≈ 0.657 µM) | 4 (≈ 10.5 µM) | CC(=O)NC[C@H]1CN(c2ccc(-c3nnc([C@@H](C)O)s3)c(F)c2)C(=O)O1 [Example 52, [S-(R*,S*)]-N-[[3-[3-Fluoro-4-[5-(1-hydroxyethyl)-1,3,4-thiadiazol-2-yl]phenyl]-2-oxo-5-oxazolidinyl]methyl]acetamide] |
| 1 (≈ 2.44 µM) | 0.25 (≈ 0.611 µM) | 4 (≈ 9.77 µM) | CC(=O)NC[C@H]1CN(c2ccc(-c3nnc(CC[N+](=O)[O-])s3)c(F)c2)C(=O)O1 [Example 53, (S)-N-[[3-[3-Fluoro-4-[5-(2-nitroethyl)-1,3,4-thiadiazol-2-yl]phenyl]-2-oxo-5-oxazolidinyl]methyl]acetamide] |
| 2 (≈ 4.72 µM) | 0.25 (≈ 0.59 µM) | 4 (≈ 9.45 µM) | CC(=O)NC[C@H]1CN(c2ccc(-c3nnc(CCC[N+](=O)[O-])s3)c(F)c2)C(=O)O1 [Example 54, (S)-N-[[3-[3-Fluoro-4-[5-(3-nitropropyl)-1,3,4-thiadiazol-2-yl]phenyl]-2-oxo-5-oxazolidinyl]methyl]acetamide] |
| 8 (≈ 21.1 µM) | < 0.125 | 4 (≈ 10.5 µM) | CC(=O)NC[C@H]1CN(c2ccc(-c3nnc([C@H](C)N)s3)c(F)c2)C(=O)O1 [Example 55, [S-(R*,R*)]-N-[[3-[4-[5-(1-Aminoethyl)-1,3,4-thiadiazol-2-yl]-3-fluorophenyl]-2-oxo-5-oxazolidinyl]methyl]acetamide] |
| 4 (≈ 10.5 µM) | < 0.125 | 4 (≈ 10.5 µM) | CC(=O)NC[C@H]1CN(c2ccc(-c3nnc([C@@H](C)N)s3)c(F)c2)C(=O)O1 [Example 56, [S-(R*,S*)]-N-[[3-[4-[5-(1-Aminoethyl)-1,3,4-thiadiazol-2-yl]-3-fluorophenyl]-2-oxo-5-oxazolidinyl]methyl]acetamide] |
| 1 (≈ 2.48 µM) | < 0.125 | 4 (≈ 9.91 µM) | CC(=O)NC[C@H]1CN(c2ccc(-c3nnc(CCCC#N)s3)c(F)c2)C(=O)O1 [Example 61, (S)-N-[[3-[4-[5-(3-Cyanopropyl)-1,3,4-thiadiazol-2-yl]-3-fluorophenyl]-2-oxo-5-oxazolidinyl]methyl]acetamide] |
| 2 (≈ 4.75 µM) | < 0.125 | 4 (≈ 9.49 µM) | CC(=O)NC[C@H]1CN(c2ccc(-c3nnc(CCC(C)=NO)s3)c(F)c2)C(=O)O1 [Example 63, (S)-N-[[3-[3-Fluoro-4-[5-[3-(hydroxyimino)butyl]-1,3,4-thiadiazol-2-yl]phenyl]-2-oxo-5-oxazolidinyl]methyl]acetamide] |
| 1 (≈ 2.54 µM) | < 0.125 | 2 (≈ 5.08 µM) | CC(=O)NC[C@H]1CN(c2ccc(-c3nnc(CC=NO)s3)c(F)c2)C(=O)O1 [Example 64, (S)-N-[[3-[3-Fluoro-4-[5-[2-(hydroxyimino)ethyl]-1,3,4-thiadiazol-2-yl]phenyl]-2-oxo-5-oxazolidinyl]methyl]acetamide] |
| 4 (≈ 9.04 µM) | < 0.5 | 4 (≈ 9.04 µM) | CC(=O)NC[C@H]1CN(c2ccc(-c3nnc(CCS(C)(=O)=O)s3)c(F)c2)C(=O)O1 [Example 70, (S)-N-[[3-[3-Fluoro-4-[5-[2-(methylsulfonyl)ethyl]-1,3,4-thiadiazol-2-yl]phenyl]-2-oxo-5-oxazolidinyl]methyl]acetamide] |
| 1 (≈ 2.85 µM) | 0.25 (≈ 0.714 µM) | 4 (≈ 11.4 µM) | CCC(=O)NC[C@H]1CN(c2ccc(-c3nncs3)c(F)c2)C(=O)O1 [Example 71, (S)-N-[[3-[3-Fluoro-4-(1,3,4-thiadiazol-2-yl)phenyl]-2-oxo-5-oxazolidinyl]methyl]propanamide] |
| 0.25 (≈ 0.709 µM) | < 0.125 | 1 (≈ 2.84 µM) | CC(=S)NC[C@H]1CN(c2ccc(-c3nncs3)c(F)c2)C(=O)O1 [Example 74, (S)-N-[[3-[3-Fluoro-4-(1,3,4-thiadiazol-2-yl)phenyl]-2-oxo-5-oxazolidinyl]methyl]ethanethioamide] |
| 0.25 (≈ 0.707 µM) | < 0.125 | 1 (≈ 2.83 µM) | NC(=S)NC[C@H]1CN(c2ccc(-c3nncs3)c(F)c2)C(=O)O1 [Example 75, (S)-[[3-[3-Fluoro-4-(1,3,4-thiadiazol-2-yl)phenyl]-2-oxo-5-oxazolidinyl]methyl]thiourea] |
| 0.25 (≈ 0.682 µM) | < 0.125 | 1 (≈ 2.73 µM) | CCC(=S)NC[C@H]1CN(c2ccc(-c3nncs3)c(F)c2)C(=O)O1 [Example 76, (S)-N-[[3-[3-Fluoro-4-(1,3,4-thiadiazol-2-yl)phenyl]-2-oxo-5-oxazolidinyl]methyl]propanethioamide] |
| < 0.5 | < 0.5 | < 0.5 | CC(=S)NC[C@H]1CN(c2ccc(-c3nnc(CN)s3)c(F)c2)C(=O)O1 [Example 77, N-[((5S)-3-{4-[5-(aminomethyl)-1,3,4-thiadiazol-2-yl]-3-fluorophenyl}-2-oxo-1,3-oxazolidin-5-yl)methyl]ethanethioamide] |
| 2 | < 0.5 | 4 | CC(=O)OCC(=O)NCc1nnc(-c2ccc(N3C[C@H](CNC(C)=S)OC3=O)cc2F)s1 [Example 78, 2-({[5-(4-{(5S)-5-[(ethanethioylamino)methyl]-2-oxo-1,3-oxazolidin-3-yl}-2-fluorophenyl)-1,3,4-thiadiazol-2-yl]methyl}amino)-2-oxoethyl acetate] |
